Measured values published in ChEMBL document CHEMBL3872207, “Aromatic heterocyclic esters of podophyllotoxin exert anti-MDR activity in human leukemia K562/ADR cells via ROS/MAPK signaling pathways” (Eur J Med Chem, 2016).
The source made the active and inactive calls. No cut-off for these calls is given here.

Tests used:
K562/Adr [1] = test: Induction of apoptosis in human K562/ADR cells assessed as viable cells at 0.1 uM after 48 hrs by Annexin V-APC/7-AAD staining based flow cytometry (reference value: 95.31%); assay type: functional; conditions: read-out: Activity
K562/Adr [2] = test: Induction of apoptosis in human K562/ADR cells assessed as ratio of cleaved caspase-3 to beta-actin level at 0.1 uM pretreated with ROS scavenger NAC for 2 hrs followed by compound addition measured after 48 hrs by Western blot analysis (reference value: 0.06); assay type: functional
[3] = Downregulation of CDK2 expression in human K562/ADR cells assessed as ratio of CDK2 to beta-actin level at 0.1 uM pretreated with ROS scavenger NAC for 2 hrs followed by compound addition measured after 48 hrs by Western blot analysis (reference value: 0.65); assay type: functional, cell-based
K562/Adr [4] = test: Induction of apoptosis in human K562/ADR cells assessed as ratio of cleaved caspase-9 to beta-actin level at 0.1 uM pretreated with MAPK inhibitor SB203580 for 1 hr followed by compound addition measured after 48 hrs by Western blot analysis (reference value: 0.05); assay type: functional
K562/Adr [5] = test: Induction of apoptosis in human K562/ADR cells assessed as viable cells at 0.1 uM pretreated with MAPK inhibitor SP600125 for 1 hr followed by compound addition after 48 hrs by Annexin V-APC/7-AAD staining based flow cytometry (reference value: 95.31%); assay type: functional; conditions: read-out: Activity
[6] = Downregulation of P-gp expression in human K562/ADR cells assessed as ratio of P-gp to beta-actin level at 0.1 uM pretreated with MAPK inhibitor SB203580 for 1 hr followed by compound addition measured after 48 hrs by Western blot analysis (reference value: 0.63); assay type: functional, cell-based
K562/Adr [7] = test: Induction of intracellular ROS accumulation in human K562/ADR cells assessed as fluorescence intensity at 0.1 uM treated 2 hrs post ROS scavenger NAC addition measured after 24 hrs by DCFH-DA probe based flow cytometry relative to vehicle-treated control; assay type: functional
[8] = Downregulation of P-gp expression in human K562/ADR cells assessed as ratio of P-gp to beta-actin level at 0.1 uM pretreated with ROS scavenger NAC for 2 hrs followed by compound addition measured after 48 hrs by Western blot analysis (reference value: 0.63); assay type: functional, cell-based
[9] = Downregulation of CyclinA expression in human K562/ADR cells assessed as ratio of CyclinA to beta-actin level at 0.1 uM pretreated with MAPK inhibitor SP600125 for 1 hr followed by compound addition measured after 48 hrs by Western blot analysis (reference value: 0.64); assay type: functional, cell-based
[10] = Downregulation of CDK1 expression in human K562/ADR cells assessed as ratio of CDK1 to beta-actin level at 0.1 uM pretreated with MAPK inhibitor SB203580 for 1 hr followed by compound addition measured after 48 hrs by Western blot analysis (reference value: 0.53); assay type: functional, cell-based
[11] = Downregulation of CyclinA expression in human K562/ADR cells assessed as ratio of CyclinA to beta-actin level at 0.1 uM pretreated with MAPK inhibitor SB203580 for 1 hr followed by compound addition measured after 48 hrs by Western blot analysis (reference value: 0.64); assay type: functional, cell-based
K562/Adr [12] = test: Induction of apoptosis in human K562/ADR cells assessed as late apoptotic cells at 0.1 uM pretreated with MAPK inhibitor SB203580 for 1 hr followed by compound addition after 48 hrs by Annexin V-APC/7-AAD staining based flow cytometry (reference value: 1.69%); assay type: functional; design: scale not given: the % may be the effect or the level left
K562/Adr [13] = test: Induction of apoptosis in human K562/ADR cells assessed as early apoptotic cells at 0.1 uM pretreated with MAPK inhibitor SB203580 for 1 hr followed by compound addition after 48 hrs by Annexin V-APC/7-AAD staining based flow cytometry (reference value: 2.74%); assay type: functional; design: scale not given: the % may be the effect or the level left
K562/Adr [14] = test: Induction of apoptosis in human K562/ADR cells assessed as ratio of cleaved caspase-9 to beta-actin level at 0.1 uM pretreated with MAPK inhibitor SP600125 for 1 hr followed by compound addition measured after 48 hrs by Western blot analysis (reference value: 0.05); assay type: functional
[15] = Downregulation of CyclinB1 expression in human K562/ADR cells assessed as ratio of CyclinB1 to beta-actin level at 0.1 uM pretreated with ROS scavenger NAC for 2 hrs followed by compound addition measured after 48 hrs by Western blot analysis (reference value: 0.77); assay type: functional, cell-based
K562/Adr [16] = test: Induction of apoptosis in human K562/ADR cells assessed as membrane blebbing at 0.1 uM measured after 24 hrs by Hoechst33342 staining-based inverted fluorescent microscopic analysis; assay type: functional, cell-based
[17] = Downregulation of CDK1 expression in human K562/ADR cells assessed as ratio of CDK1 to beta-actin level at 0.1 uM pretreated with MAPK inhibitor SP600125for 1 hr followed by compound addition measured after 48 hrs by Western blot analysis (reference value: 0.53); assay type: functional, cell-based
[18] = Potency index, ratio of doxorubicin IC50 to compound IC50 for antiproliferative activity against human K562/ADR cells; assay type: functional
K562/Adr [19] = test: Induction of apoptosis in human K562/ADR cells assessed as ratio of cleaved PARP to beta-actin level at 0.1 uM measured after 48 hrs by Western blot analysis (reference value: 0.04); assay type: functional
K562/Adr [20] = test: Induction of apoptosis in human K562/ADR cells assessed as necrotic cells at 0.1 uM pretreated with MAPK inhibitor SP600125 for 1 hr followed by compound addition after 48 hrs by Annexin V-APC/7-AAD staining based flow cytometry (reference value: 0.26%); assay type: functional; design: scale not given: the % may be the effect or the level left
K562/Adr [21] = test: Induction of apoptosis in human K562/ADR cells assessed as ratio of cleaved PARP to beta-actin level at 0.1 uM pretreated with MAPK inhibitor SB203580 for 1 hr followed by compound addition measured after 48 hrs by Western blot analysis (reference value: 0.04); assay type: functional
[22] = Downregulation of P-gp expression in human K562/ADR cells assessed as ratio of P-gp to beta-actin level at 0.1 uM pretreated with MAPK inhibitor SP600125 for 1 hr followed by compound addition measured after 48 hrs by Western blot analysis (reference value: 0.63); assay type: functional, cell-based
[23] = Downregulation of CyclinB1 expression in human K562/ADR cells assessed as ratio of CyclinB1 to beta-actin level at 0.1 uM measured after 48 hrs by Western blot analysis (reference value: 0.77); assay type: functional, cell-based
K562/Adr [24] = test: Induction of apoptosis in human K562/ADR cells assessed as necrotic cells at 0.1 uM after 48 hrs by Annexin V-APC/7-AAD staining based flow cytometry (reference value: 0.26%); assay type: functional
[25] = Downregulation of CDK2 expression in human K562/ADR cells assessed as ratio of CDK2 to beta-actin level at 0.1 uM measured after 48 hrs by Western blot analysis (reference value: 0.65); assay type: functional, cell-based
K562/Adr [26] = test: Induction of apoptosis in human K562/ADR cells assessed as ratio of cleaved caspase-8 to beta-actin level at 0.1 uM pretreated with ROS scavenger NAC for 2 hrs followed by compound addition measured after 48 hrs by Western blot analysis (reference value: 0.07); assay type: functional

In the case of `COc1cc([C@@H]2c3cc4c(cc3[C@H](OC(=O)c3ccco3)[C@H]3COC(=O)[C@H]23)OCO4)cc(OC)c1OC`, the viability at 0.1 µM (K562/Adr [1]) is reported as 46.1%, the Ratio (K562/Adr [2]) is reported as 0.2 and the Ratio [3] is reported as 0.43. For the same compound, the Ratio (K562/Adr [4]) was 0.44, the viability at 0.1 µM (K562/Adr [5]) was 58.5% and the Ratio [6] was 0.34. For the same compound, the “fold change (FC)” value (K562/Adr [7]) was 0.49, the Ratio [8] was 0.66 and the Ratio [9] was 0.31. For the same compound, the Ratio [10] was 0.2, the Ratio [11] was 0.34 and the Activity (K562/Adr [12]) was 30.87%. The Activity (K562/Adr [13]) was 6.84%, the Ratio (K562/Adr [14]) was 0.47 and the Ratio [15] was 0.66. For the same compound, the Activity (K562/Adr [16]) was “Active”, the Ratio [17] was 0.19 and the “Ratio IC50” value [18] was 586.843. For the same compound, the Ratio (K562/Adr [19]) was 0.84, the Activity (K562/Adr [20]) was 3.42% and the Ratio (K562/Adr [21]) was 0.48. The Ratio [22] was 0.34, the Ratio [23] was 0.19 and the Activity (K562/Adr [24]) was 5.49%. The Ratio [25] was 0.14 and the Ratio (K562/Adr [26]) was 0.15.
